Measurements: PubChem BioAssay AID1963960 (Molecular Pharmacology Branch, DTP, NCI, 2024)

Tested on: MDA-MB-468 spheroids with HUVEC/MSC, viability
Test: Anticancer human tumor MDA-MB-468 cell line growth inhibition [PI3K];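 also: spheroids exposed to agents for seven days before readout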;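 as to viability, T/C: 100% = DMSO vehicle control viability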
Details: for IC50: curve of first compound; for viability, T/C: stronger effect = lower value
How it was run: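 Tumor cells grown as multi-cell spheroids with HUVEC endothelial cells and MSC fibroblast-like stroma were treated with targeted agents combined with inavolisib, alpelisib, duvelisib or copanlisib. Doses fell in half-log steps from near clinical Cmax, else from 10 microM. Viability was measured.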

[1] = second compound 0.0316 µM, first compound 0.0316 µM
[2] = second compound 0.0316 µM, first compound 0.1 µM
[3] = second compound 0.1 µM, first compound 0.0316 µM
[4] = second compound 0.1 µM, first compound 0.1 µM
[5] = second compound 0.316 µM, first compound 0.0316 µM
[6] = second compound 0.316 µM, first compound 0.1 µM
[7] = second compound 1 µM, first compound 0.0316 µM
[8] = second compound 1 µM, first compound 0.1 µM
[9] = second compound 0.00316 µM, first compound 0.0316 µM
[10] = second compound 0.00316 µM, first compound 0.1 µM
[11] = second compound 0.00316 µM, first compound 0.316 µM
[12] = second compound 0.00316 µM, first compound 1 µM
[13] = second compound 0.00316 µM, first compound 3.16 µM
[14] = second compound 0.00316 µM, first compound 10 µM
[15] = second compound 0.01 µM, first compound 0.0316 µM
[16] = second compound 0.01 µM, first compound 0.1 µM
[17] = second compound 0.01 µM, first compound 0.316 µM
[18] = second compound 0.01 µM, first compound 1 µM
[19] = second compound 0.01 µM, first compound 3.16 µM
[20] = second compound 0.01 µM, first compound 10 µM
[21] = second compound 0.0316 µM, first compound 0.316 µM
[22] = second compound 0.0316 µM, first compound 1 µM
[23] = second compound 0.0316 µM, first compound 3.16 µM
[24] = second compound 0.0316 µM, first compound 10 µM
[25] = second compound 0.1 µM, first compound 0.316 µM
[26] = second compound 0.1 µM, first compound 1 µM
[27] = second compound 0.1 µM, first compound 3.16 µM
[28] = second compound 0.1 µM, first compound 10 µM
[29] = second compound 0.316 µM, first compound 0.316 µM
[30] = second compound 0.316 µM, first compound 1 µM
[31] = second compound 0.316 µM, first compound 3.16 µM
[32] = second compound 0.316 µM, first compound 10 µM
[33] = second compound 1 µM, first compound 0.316 µM
[34] = second compound 1 µM, first compound 1 µM
[35] = second compound 1 µM, first compound 3.16 µM
[36] = second compound 1 µM, first compound 10 µM

## CC(=O)c1c(C)c2cnc(Nc3ccc(N4CCNCC4)cn3)nc2n(C2CCCC2)c1=O + Cc1nc(NC(=O)N2CCCC2C(N)=O)sc1-c1ccnc(C(C)(C)C(F)(F)F)c1
Second compound 0.0316 µM
  IC50: > 0.1 µM
Second compound 0.1 µM
  IC50: > 0.1 µM
Second compound 0.316 µM
  IC50: > 0.1 µM
Second compound 1 µM
  IC50: > 0.1 µM
Second compound 3.16 µM
  IC50: > 0.1 µM
Second compound 10 µM
  IC50: < 0.000316 µM
Second compound 0.0316 µM, first compound 0.000316 µM
  viability, T/C: 91.5%
Second compound 0.0316 µM, first compound 0.001 µM
  viability, T/C: 92.1%
Second compound 0.0316 µM, first compound 0.00316 µM
  viability, T/C: 74.8%
Second compound 0.0316 µM, first compound 0.01 µM
  viability, T/C: 93.4%
[1]
  viability, T/C: 70.7%
[2]
  viability, T/C: 70.2%
Second compound 0.1 µM, first compound 0.000316 µM
  viability, T/C: 88.3%
Second compound 0.1 µM, first compound 0.001 µM
  viability, T/C: 92.2%
Second compound 0.1 µM, first compound 0.00316 µM
  viability, T/C: 86.5%
Second compound 0.1 µM, first compound 0.01 µM
  viability, T/C: 97%
[3]
  viability, T/C: 61.6%
[4]
  viability, T/C: 67.2%
Second compound 0.316 µM, first compound 0.000316 µM
  viability, T/C: 96.2%
Second compound 0.316 µM, first compound 0.001 µM
  viability, T/C: 95%
Second compound 0.316 µM, first compound 0.00316 µM
  viability, T/C: 74.8%
Second compound 0.316 µM, first compound 0.01 µM
  viability, T/C: 91.9%
[5]
  viability, T/C: 72.5%
[6]
  viability, T/C: 67.6%
Second compound 1 µM, first compound 0.000316 µM
  viability, T/C: 90.1%
Second compound 1 µM, first compound 0.001 µM
  viability, T/C: 75.7%
Second compound 1 µM, first compound 0.00316 µM
  viability, T/C: 73.5%
Second compound 1 µM, first compound 0.01 µM
  viability, T/C: 75.2%
[7]
  viability, T/C: 75.6%
[8]
  viability, T/C: 76.8%
Second compound 3.16 µM, first compound 0.000316 µM
  viability, T/C: 74.9%
Second compound 3.16 µM, first compound 0.001 µM
  viability, T/C: 60.4%
Second compound 3.16 µM, first compound 0.00316 µM
  viability, T/C: 57.5%
Second compound 3.16 µM, first compound 0.01 µM
  viability, T/C: 68.8%
Second compound 3.16 µM, first compound 0.0316 µM
  viability, T/C: 55.4%
Second compound 3.16 µM, first compound 0.1 µM
  viability, T/C: 55.2%
Second compound 10 µM, first compound 0.000316 µM
  viability, T/C: 32.1%
Second compound 10 µM, first compound 0.001 µM
  viability, T/C: 24.2%
Second compound 10 µM, first compound 0.00316 µM
  viability, T/C: 31.2%
Second compound 10 µM, first compound 0.01 µM
  viability, T/C: 28.6%
Second compound 10 µM, first compound 0.0316 µM
  viability, T/C: 29.5%
Second compound 10 µM, first compound 0.1 µM
  viability, T/C: 27.6%

## C#Cc1c(F)ccc2cc(O)cc(-c3ncc4c(N5CC6CCC(C5)N6)nc(OCC56CCCN5CC(F)C6)nc4c3F)c12 (stereo not drawn) + CC(Nc1ccc2c(c1)OCCn1cc(N3C(=O)OCC3C(F)F)nc1-2)C(N)=O
Second compound 0.00316 µM
  IC50: > 10 µM
Second compound 0.01 µM
  IC50: > 10 µM
Second compound 0.0316 µM
  IC50: 8.92 µM
Second compound 0.1 µM
  IC50: 8 µM
Second compound 0.316 µM
  IC50: 5.19 µM
Second compound 1 µM
  IC50: 4.48 µM
[9]
  viability, T/C: 94.9%
[10]
  viability, T/C: 91%
[11]
  viability, T/C: 86%
[12]
  viability, T/C: 91.5%
[13]
  viability, T/C: 88.2%
[14]
  viability, T/C: 53.4%
[15]
  viability, T/C: 95.7%
[16]
  viability, T/C: 103%
[17]
  viability, T/C: 83.3%
[18]
  viability, T/C: 82%
[19]
  viability, T/C: 89.2%
[20]
  viability, T/C: 55.1%
[1]
  viability, T/C: 91.4%
[2]
  viability, T/C: 84.9%
[21]
  viability, T/C: 88.3%
[22]
  viability, T/C: 81.2%
[23]
  viability, T/C: 81.9%
[24]
  viability, T/C: 46.5%
[3]
  viability, T/C: 84%
[4]
  viability, T/C: 76.7%
[25]
  viability, T/C: 72.1%
[26]
  viability, T/C: 75.5%
[27]
  viability, T/C: 73.9%
[28]
  viability, T/C: 44.4%
[5]
  viability, T/C: 93.1%
[6]
  viability, T/C: 72%
[29]
  viability, T/C: 81.1%
[30]
  viability, T/C: 64.5%
[31]
  viability, T/C: 65.7%
[32]
  viability, T/C: 36.4%
[7]
  viability, T/C: 89.1%
[8]
  viability, T/C: 75.4%
[33]
  viability, T/C: 82.1%
[34]
  viability, T/C: 70.3%
[35]
  viability, T/C: 59.2%
[36]
  viability, T/C: 31.3%

## CC1(C)CCC(Nc2ncc(C(F)(F)F)c(-c3c[nH]c4c(P(C)(C)=O)c(C#N)ccc34)n2)CN1 (stereo not drawn) + COc1c(OCCCN2CCOCC2)ccc2c3n(c(=NC(=O)c4cnc(N)nc4)nc12)CCN3
Second compound 0.00316 µM
  IC50: < 0.0316 µM
Second compound 0.01 µM
  IC50: < 0.0316 µM
Second compound 0.0316 µM
  IC50: < 0.0316 µM
Second compound 0.1 µM
  IC50: < 0.0316 µM
Second compound 0.316 µM
  IC50: < 0.0316 µM
Second compound 1 µM
  IC50: < 0.0316 µM
[9]
  viability, T/C: 9.69%
[10]
  viability, T/C: 8.09%
[11]
  viability, T/C: 7.16%
[12]
  viability, T/C: 7.44%
[13]
  viability, T/C: 6.56%
[14]
  viability, T/C: 1.22%
[15]
  viability, T/C: 8.56%
[16]
  viability, T/C: 7.53%
[17]
  viability, T/C: 6.69%
[18]
  viability, T/C: 6.66%
[19]
  viability, T/C: 6.59%
[20]
  viability, T/C: 1.41%
[1]
  viability, T/C: 8.31%
[2]
  viability, T/C: 8.47%
[21]
  viability, T/C: 7.44%
[22]
  viability, T/C: 6.08%
[23]
  viability, T/C: 6.49%
[24]
  viability, T/C: 1.91%
[3]
  viability, T/C: 9.69%
[4]
  viability, T/C: 8.3%
[25]
  viability, T/C: 7.97%
[26]
  viability, T/C: 6.87%
[27]
  viability, T/C: 6%
[28]
  viability, T/C: 2.2%
[5]
  viability, T/C: 8.16%
[6]
  viability, T/C: 6.87%
[29]
  viability, T/C: 6.83%
[30]
  viability, T/C: 5.84%
[31]
  viability, T/C: 4.35%
[32]
  viability, T/C: 1.03%
[7]
  viability, T/C: 4.03%
[8]
  viability, T/C: 3.59%
[33]
  viability, T/C: 3.45%
[34]
  viability, T/C: 4.91%
[35]
  viability, T/C: 3.08%
[36]
  viability, T/C: 0.82%

## CC(C)NCC(C(=O)N1CCN(c2ncnc3c2C(C)CC3O)CC1)c1ccc(Cl)cc1 (stereo not drawn) + CC(Nc1ccc2c(c1)OCCn1cc(N3C(=O)OCC3C(F)F)nc1-2)C(N)=O
Second compound 0.00316 µM
  IC50: 1.29 µM
Second compound 0.01 µM
  IC50: 0.759 µM
Second compound 0.0316 µM
  IC50: 0.749 µM
Second compound 0.1 µM
  IC50: 0.576 µM
Second compound 0.316 µM
  IC50: 0.678 µM
Second compound 1 µM
  IC50: 0.311 µM
[9]
  viability, T/C: 90.2%
[10]
  viability, T/C: 91.3%
[11]
  viability, T/C: 72.5%
[12]
  viability, T/C: 60.1%
[13]
  viability, T/C: 27.5%
[14]
  viability, T/C: 25.5%
[15]
  viability, T/C: 113%
[16]
  viability, T/C: 88%
[17]
  viability, T/C: 67.7%
[18]
  viability, T/C: 45.8%
[19]
  viability, T/C: 27.8%
[20]
  viability, T/C: 23.7%
[1]
  viability, T/C: 88.1%
[2]
  viability, T/C: 85.5%
[21]
  viability, T/C: 65.6%
[22]
  viability, T/C: 45.1%
[23]
  viability, T/C: 29.5%
[24]
  viability, T/C: 24.4%
[3]
  viability, T/C: 104%
[4]
  viability, T/C: 83.6%
[25]
  viability, T/C: 57.2%
[26]
  viability, T/C: 45.1%
[27]
  viability, T/C: 24.3%
[28]
  viability, T/C: 21.4%
[5]
  viability, T/C: 89.8%
[6]
  viability, T/C: 81.3%
[29]
  viability, T/C: 65.7%
[30]
  viability, T/C: 42.5%
[31]
  viability, T/C: 26.4%
[32]
  viability, T/C: 22%
[7]
  viability, T/C: 82.5%
[8]
  viability, T/C: 65.3%
[33]
  viability, T/C: 50.1%
[34]
  viability, T/C: 37%
[35]
  viability, T/C: 26.2%
[36]
  viability, T/C: 21.2%
